#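 Values below derive from 48-hour exposures of cells grown in 96-well plates, with endpoints linearly interpolated between the two concentrations bracketing the appropriate inhibition level. Abbreviation: GI50, concentration required for 50% inhibition of growth. TGI: concentration producing complete growth inhibition.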
# Experiments:
# Assay in all cases: NCI tumour cell line growth inhibition, 48 h
# [1] = tested on: OVCAR-4 ovarian
# [2] = tested on: CCRF-CEM leukemia
# [3] = tested on: HT29 colon
# [4] = tested on: M19-MEL melanoma
# [5] = tested on: RPMI-8226 leukemia
# [6] = tested on: A498 renal
# [7] = tested on: HCT-15 colon
# [8] = tested on: LXFL 529 NSCLC
# [9] = tested on: SNB-75 CNS
# [10] = tested on: HCC-2998 colon
# [11] = tested on: HCT-116 colon
# [12] = tested on: LOX IMVI melanoma
# [13] = tested on: KM12 colon
# [14] = tested on: A549 NSCLC
# [15] = tested on: KM20L2 colon
# [16] = tested on: SK-MEL-28 melanoma
# [17] = tested on: 786-0 renal
# [18] = tested on: SK-OV-3 ovarian
# [19] = tested on: SF-268 CNS
# [20] = tested on: SNB-19 CNS
# [21] = tested on: SF-295 CNS
# [22] = tested on: TK-10 renal
# [23] = tested on: SR leukemia
# [24] = tested on: HOP-62 NSCLC
# [25] = tested on: UACC-257 melanoma
# [26] = tested on: CAKI-1 renal
# [27] = tested on: COLO 205 colon
# [28] = tested on: K-562 leukemia
# [29] = tested on: HOP-92 NSCLC
# [30] = tested on: SK-MEL-5 melanoma
# [31] = tested on: U251 CNS
# [32] = tested on: SN12C renal
# [33] = tested on: UACC-62 melanoma
# [34] = tested on: OVCAR-8 ovarian
# [35] = tested on: DMS 114 small cell lung
# [36] = tested on: NCI-H460 lung
# [37] = tested on: UO-31 renal
# [38] = tested on: EKVX NSCLC
# [39] = tested on: NCI-H23 lung
# [40] = tested on: IGROV1 ovarian
# [41] = tested on: SF-539 CNS
# [42] = tested on: RXF 393 renal
# [43] = tested on: M14 melanoma
# [44] = tested on: HL-60(TB) leukemia
# [45] = tested on: SW-620 colon
# [46] = tested on: MOLT-4 leukemia
# [47] = tested on: DLD-1 colon
# [48] = tested on: NCI-H522 lung
# [49] = tested on: HOP-18 NSCLC
# [50] = tested on: OVCAR-5 ovarian
# [51] = tested on: OVCAR-3 ovarian
# [52] = tested on: MALME-3M melanoma
# [53] = tested on: ACHN renal
# [54] = tested on: RXF-631 renal
smiles,measurement,setting,value
CCC[CH2][Sn]1([CH2]CCC)[O]C(=O)c2cccc(C)c2[O]1,GI50,[1],1.33 µM
same,TGI,[1],2.61 µM
same,GI50,[2],0.26 µM
same,TGI,[2],0.924 µM
same,GI50,[3],1.5 µM
same,TGI,[3],2.97 µM
same,GI50,[4],0.477 µM
same,TGI,[4],1.69 µM
same,GI50,[5],0.25 µM
same,TGI,[5],0.81 µM
same,GI50,[6],0.317 µM
same,TGI,[6],0.867 µM
same,GI50,[7],0.592 µM
same,TGI,[7],2.7 µM
same,GI50,[8],0.141 µM
same,TGI,[8],0.44 µM
same,GI50,[9],0.239 µM
same,TGI,[9],0.766 µM
same,GI50,[10],1.27 µM
same,TGI,[10],2.6 µM
same,GI50,[11],1.25 µM
same,TGI,[11],2.5 µM
same,GI50,[12],0.21 µM
same,TGI,[12],0.448 µM
same,GI50,[13],1.08 µM
same,TGI,[13],2.36 µM
same,GI50,[14],1.46 µM
same,TGI,[14],2.79 µM
same,GI50,[15],1.35 µM
same,TGI,[15],2.64 µM
same,GI50,[16],0.454 µM
same,TGI,[16],1.51 µM
same,GI50,[17],1.07 µM
same,TGI,[17],2.26 µM
same,GI50,[18],1.88 µM
same,TGI,[18],3.4 µM
same,GI50,[19],0.349 µM
same,TGI,[19],1.46 µM
same,GI50,[20],0.363 µM
same,TGI,[20],1.36 µM
same,GI50,[21],1.56 µM
same,TGI,[21],2.99 µM
same,GI50,[22],0.356 µM
same,TGI,[22],0.911 µM
same,GI50,[23],0.401 µM
same,TGI,[23],1.82 µM
same,GI50,[24],2.34 µM
same,TGI,[24],4.16 µM
same,GI50,[25],0.626 µM
same,TGI,[25],1.95 µM
same,GI50,[26],0.258 µM
same,TGI,[26],0.852 µM
same,GI50,[27],0.188 µM
same,TGI,[27],1.54 µM
same,GI50,[28],0.259 µM
same,TGI,[28],0.897 µM
same,GI50,[29],1.28 µM
same,TGI,[29],2.58 µM
same,GI50,[30],1.09 µM
same,TGI,[30],2.33 µM
same,GI50,[31],0.421 µM
same,TGI,[31],1.44 µM
same,GI50,[32],0.598 µM
same,TGI,[32],1.84 µM
same,GI50,[33],0.581 µM
same,TGI,[33],1.82 µM
same,GI50,[34],1.04 µM
same,TGI,[34],2.38 µM
same,GI50,[35],0.231 µM
same,TGI,[35],0.565 µM
same,GI50,[36],2.48 µM
same,TGI,[36],5.75 µM
same,GI50,[37],1.03 µM
same,TGI,[37],2.22 µM
same,GI50,[38],1.42 µM
same,TGI,[38],2.77 µM
same,GI50,[39],0.649 µM
same,TGI,[39],1.98 µM
same,GI50,[40],1.35 µM
same,TGI,[40],2.72 µM
same,GI50,[41],0.66 µM
same,TGI,[41],1.91 µM
same,GI50,[42],0.29 µM
same,TGI,[42],1.02 µM
same,GI50,[43],0.577 µM
same,TGI,[43],1.88 µM
same,GI50,[44],0.297 µM
same,TGI,[44],1.37 µM
same,GI50,[45],0.2 µM
same,TGI,[45],0.548 µM
same,GI50,[46],0.218 µM
same,TGI,[46],0.699 µM
same,GI50,[47],0.722 µM
same,TGI,[47],2.05 µM
same,GI50,[48],0.119 µM
same,TGI,[48],0.25 µM
same,GI50,[49],1.08 µM
same,TGI,[49],2.27 µM
same,GI50,[50],1.78 µM
same,TGI,[50],3.16 µM
same,GI50,[51],1.11 µM
same,TGI,[51],2.32 µM
same,GI50,[52],0.441 µM
same,TGI,[52],1.55 µM
same,GI50,[53],0.551 µM
same,TGI,[53],1.74 µM
same,GI50,[54],0.24 µM
same,TGI,[54],0.535 µM

# — PubChem BioAssay (NCI)
